Laboratory results published in patent US11202792B2, “CD99 inhibitors and their uses” (GEORGETOWN UNIVERSITY, priority 2016, dated 2021).

System: CD99-transfected SAOS-2 and U-2 OS cells
Assay: Real-time proliferation (xCELLigence) of OS cells with forced CD99 expression
Format: cell-based, human
Conditions: dose-dependent
Method: U-2 OS and SAOS-2 cells were transfected with pcDNA3.1 expression vector carrying the human full-length CD99 transcript variant 1 cDNA using the X-tremeGene 9 DNA transfection reagent (Roche Diagnostics) according to the manufacturer's recommendations. The expression of CD99 was assessed after 48 h by immunoblotting.
OS cells express low levels of CD99 and the forced ectopic expression of CD99 reduces their growth. To test whether cladribine can rescue the reduced proliferation phenotype induced by overexpression of CD99, U-2 OS and SAOS-2 cells were transiently transfected with a mammalian expression vector containing cDNA encoding full length human CD99. As expected, CD99-forced expression suppressed cell proliferation compared with empty-vector transfected cells, which was rescued by the addition of cladribine in a dose-dependent manner (FIGS. 7C-D and FIG. 9).

Nc1nc(Cl)nc2c1ncn2[C@H]1C[C@H](O)[C@@H](CO)O1 [cladribine]
rescue of reduced cell proliferation induced by CD99 expression: rescued
